Reference: publication PMC7998748, “A Unique Acylated Flavonol Glycoside from Prunus persica (L.) var. Florida Prince: A New Solid Lipid Nanoparticle Cosmeceutical Formulation for Skincare” (Antioxidants, 2021)

How the values were obtained:
[1] = β-carotene bleaching assay; conditions: after 30 min
Text: (§1) The DPPH assay was peformed using the method of Yardpiroon et al., Vitamin C was used as a positive control. The ABTS assay followed the method of Re et al., [40], Vitamin C was used as a standard. The β-carotene bleaching assay used the method described by Soulef et al., [14] in the presence of the positive control BHT. The value for each test sample was presented as the inhibition curve at 50% or IC50.

[2] = MTT cytotoxicity in human keratinocytes; format: cell-based; conditions: human keratinocytes cell line, 1 mg/mL, read-out: cell viability (cells survived)
Protocol: (§2) The human keratinocytes cell line was obtained from VACSERA CO. (The Egyptian Company for the Production of Vaccines, Sera, and Drugs, Giza, Egypt). The MTT assay was done for PPEE and PPEE-SLNs according to the method of Mostafa et al..
(§3) The MTT assay was used to test whether PPEE, PPEE-SLNs, and KDPAG could affect cell viability using human keratinocytes. Different concentrations of PPEE, PPEE-SLNs, extract-free-SLNs and KDPAG at 0.0625– 1mg/mL were incubated over 24 h with a human keratinocytes cell line (Figure 2). […] However, after treatment with 1 mg/mL of PPEE, PPEE-SLNS, Extract-free-SLNs, and KDPAG over 24 h, a significant reduction in cell viability of human keratinocytes was observed, 93%, 90%, 95%, and 89% of the cells survived, respectively. Thus, concentrations of PPEE, PPEE-SLNs, and KDPAG equal to or lower than 0.5 mg/mL were used for subsequent studies.

[3] = test system: human keratinocytes cell line; assay: MTT cytotoxicity in human keratinocytes; format: cell-based; conditions: 0.0625–0.5 mg/mL, 24 h
Protocol: as §2, §3

DPPH assay = assay: DPPH assay
Text: as §1

ABTS assay = assay: ABTS assay
Text: as §1

human leukocyte elastase = molecular target: T1, human leukocyte elastase (Homo sapiens, UniProt P08246); assay: Anti-elastase assay; format: biochemical
T1 sequence (P08246 30-267): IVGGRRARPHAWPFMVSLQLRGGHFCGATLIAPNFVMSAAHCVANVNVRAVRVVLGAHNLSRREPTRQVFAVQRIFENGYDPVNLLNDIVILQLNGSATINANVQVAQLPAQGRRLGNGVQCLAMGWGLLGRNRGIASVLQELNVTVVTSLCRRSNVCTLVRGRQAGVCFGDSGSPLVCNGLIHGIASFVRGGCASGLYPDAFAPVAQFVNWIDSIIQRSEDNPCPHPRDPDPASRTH
Protocol: The anti-aging and skin whitening activities were assessed following the methods reported by Mostafa et al.. For the anti-elastase assay, 1 μg/mL of human leukocyte elastase was incubated with HEPES buffer pH 7.5 and each of the tested extracts or 1.4 mg/mL N-Methoxysuccinyl-Ala-Ala-Pro-chloromethyl ketone (standard inhibitor) in a 96-well plate for 20 min at room temperature before the addition of 100 μL of 1 mM N-Methoxysuccinyl-Ala-Ala-Pro-Val-p-nitroanilide as a substrate. After 40 min incubation the absorbance was measured at 405 nm with a well devoid of extract/inhibitor serving as a blank. The tested samples were used in a concentration range of 25–300 µg/mL.

[4] = molecular target: collagenase type 1 from Clostridium histolyticum (Hathewaya histolytica (Clostridium histolyticum), UniProt Q46085); assay: biochemical; conditions: read-out: Anti-Collagenase % Inhibition
mushroom tyrosinase = mushroom tyrosinase (Agaricus bisporus, UniProt C7FF04); assay: Anti-tyrosinase assay; format: biochemical; conditions: 300 μg/mL tested samples; positive control kojic acid (methods: 1.4 mg/mL)
mushroom tyrosinase, sequence (G1K3P4 entry or part of it): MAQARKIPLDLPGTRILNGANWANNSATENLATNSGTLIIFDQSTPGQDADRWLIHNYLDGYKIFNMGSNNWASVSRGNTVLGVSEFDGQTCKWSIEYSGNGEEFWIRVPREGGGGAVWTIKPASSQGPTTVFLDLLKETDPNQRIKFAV
mushroom tyrosinase, sequence (C7FF04 1-392): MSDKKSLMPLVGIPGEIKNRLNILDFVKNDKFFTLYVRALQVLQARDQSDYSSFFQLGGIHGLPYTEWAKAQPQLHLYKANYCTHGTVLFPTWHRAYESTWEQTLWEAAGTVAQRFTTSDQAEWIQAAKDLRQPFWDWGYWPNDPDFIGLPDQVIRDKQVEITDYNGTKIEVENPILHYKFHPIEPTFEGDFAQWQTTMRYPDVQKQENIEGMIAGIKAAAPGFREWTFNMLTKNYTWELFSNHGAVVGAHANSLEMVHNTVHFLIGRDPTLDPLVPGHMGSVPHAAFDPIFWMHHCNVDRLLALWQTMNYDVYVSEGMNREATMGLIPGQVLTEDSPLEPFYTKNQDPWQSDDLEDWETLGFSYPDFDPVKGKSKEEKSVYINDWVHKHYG
Protocol: For the anti-tyrosinase assay, 5600 units/mL of mushroom tyrosinase was incubated with each of the tested extracts or 1.4 mg/mL kojic acid (standard inhibitor) for 15 min at 37 °C before adding 1 mM L-DOPA as a substrate. The absorbance of the formed dopachrome was measured at 475 nm. The tested samples were used in a concentration range of 75–500 µg/mL.

collagenase type 1 from Clostridium histolyticum, sequence (Q46085 41-1021 limits assumed): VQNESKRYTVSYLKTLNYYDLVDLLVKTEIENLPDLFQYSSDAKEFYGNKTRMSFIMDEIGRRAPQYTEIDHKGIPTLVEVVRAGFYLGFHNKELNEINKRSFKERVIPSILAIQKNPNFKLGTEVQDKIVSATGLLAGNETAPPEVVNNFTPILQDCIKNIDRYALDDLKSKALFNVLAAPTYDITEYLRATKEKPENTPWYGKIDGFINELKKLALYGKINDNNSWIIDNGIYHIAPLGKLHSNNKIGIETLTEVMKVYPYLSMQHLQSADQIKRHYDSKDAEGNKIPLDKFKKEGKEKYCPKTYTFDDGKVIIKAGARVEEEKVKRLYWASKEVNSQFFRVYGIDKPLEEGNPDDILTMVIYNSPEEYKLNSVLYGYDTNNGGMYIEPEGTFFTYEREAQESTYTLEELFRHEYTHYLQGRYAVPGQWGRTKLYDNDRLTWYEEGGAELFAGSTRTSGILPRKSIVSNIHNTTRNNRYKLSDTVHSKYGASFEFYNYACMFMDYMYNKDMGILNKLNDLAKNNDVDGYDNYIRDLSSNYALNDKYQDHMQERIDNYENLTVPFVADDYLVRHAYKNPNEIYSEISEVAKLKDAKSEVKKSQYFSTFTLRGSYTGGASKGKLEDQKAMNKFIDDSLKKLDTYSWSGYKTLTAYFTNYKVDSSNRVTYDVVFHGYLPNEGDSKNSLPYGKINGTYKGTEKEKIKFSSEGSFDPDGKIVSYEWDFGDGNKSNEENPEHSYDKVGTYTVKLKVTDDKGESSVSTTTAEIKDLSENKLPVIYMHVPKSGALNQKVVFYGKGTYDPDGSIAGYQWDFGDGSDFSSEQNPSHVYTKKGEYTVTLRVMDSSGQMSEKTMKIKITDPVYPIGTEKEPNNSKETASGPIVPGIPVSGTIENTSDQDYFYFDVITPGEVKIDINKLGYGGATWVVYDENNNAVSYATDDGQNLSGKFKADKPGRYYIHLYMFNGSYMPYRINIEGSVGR

SMILES | β-carotene assay IC50 [1] | viability at 24 h, 1 mg/mL [2] | reduction in cell viability [3] | DPPH IC50 (DPPH assay) | ABTS IC50 (ABTS assay) | inhibition at 1400 µg/mL (human leukocyte elastase; 300 μg/mL tested samples, positive control N-(Methoxysuccinyl)-Ala-Ala-Pro-Val-chloromethyl ketone (methods: 1.4 mg/mL)) | IC50 (human leukocyte elastase; positive control N-(Methoxysuccinyl)-Ala-Ala-Pro-Val-chloromethyl ketone) | inhibition at 1400 µg/mL [4] | inhibition at 300 µg/mL (mushroom tyrosinase)
Cc1cc(C(C)(C)C)c(O)c(C(C)(C)C)c1 [BHT, reference compound] | 8.06 ± 0.67 µg/mL |  |  |  |  |  |  |  | 
O=C(Cc1ccc(O)c(O)c1)OC[C@H]1O[C@@H](Oc2c(-c3ccc(O)cc3)oc3cc(O)cc(O)c3c2=O)[C@H](O)[C@@H](O)[C@@H]1O [KDPAG, kaempferol 3-O-β-^4C1-(6″-O-3,4-dihydroxyphenylacetyl glucopyranoside)] | 1.73 ± 0.05 µg/mL | 89% | no observed significant reduction | 6.35 ± 3.40 µg/mL | 3.91 ± 1.43 µg/mL | 89.2 ± 1.26% | 83.2 µM | 91.1 ± 2.45% | 85.7 ± 2.1%
O=C1O[C@H]([C@@H](O)CO)C(O)=C1O [vitamin C, reference compound] |  |  |  | 2 ± 0.01 µg/mL | 0.96 ± 0.02 µg/mL |  |  |  | 
